This note sets out measurements from PMC6437697 (Journal of Medicinal Chemistry, 2019).

Holding throughout (experiment): KINOMEscan
Assay type in all cases: binding
Common to all, as to conditions: read-out: % control activity remaining

One assay deals with T1, CAMK1G (Homo sapiens, UniProt Q96NX5).
T1 construct: purchased Eurofins DiscoverX KINOMEscan

In assay [1] the target is T2, ABL1(F317I)-nonphosphorylated (Homo sapiens, UniProt P00519, F317I).
T2 construct: purchased Eurofins DiscoverX KINOMEscan

For a further assay, the target named is T3, MARK3 (Homo sapiens, UniProt P27448).
T3 construct: purchased Eurofins DiscoverX KINOMEscan

The next assay addresses T4, STK39 (Homo sapiens, UniProt Q9UEW8).
T4 construct: purchased Eurofins DiscoverX KINOMEscan

Another assay deals with T5, HIPK2 (Homo sapiens, UniProt Q9H2X6).
T5 construct: purchased Eurofins DiscoverX KINOMEscan

For another assay, the target named is T6, FAK (Homo sapiens, UniProt Q05397).
T6 construct: purchased Eurofins DiscoverX KINOMEscan

Another assay deals with T7, TNNI3K (Homo sapiens, UniProt Q59H18).
T7 construct: purchased Eurofins DiscoverX KINOMEscan
T7 sequence (Q59H18 1-835): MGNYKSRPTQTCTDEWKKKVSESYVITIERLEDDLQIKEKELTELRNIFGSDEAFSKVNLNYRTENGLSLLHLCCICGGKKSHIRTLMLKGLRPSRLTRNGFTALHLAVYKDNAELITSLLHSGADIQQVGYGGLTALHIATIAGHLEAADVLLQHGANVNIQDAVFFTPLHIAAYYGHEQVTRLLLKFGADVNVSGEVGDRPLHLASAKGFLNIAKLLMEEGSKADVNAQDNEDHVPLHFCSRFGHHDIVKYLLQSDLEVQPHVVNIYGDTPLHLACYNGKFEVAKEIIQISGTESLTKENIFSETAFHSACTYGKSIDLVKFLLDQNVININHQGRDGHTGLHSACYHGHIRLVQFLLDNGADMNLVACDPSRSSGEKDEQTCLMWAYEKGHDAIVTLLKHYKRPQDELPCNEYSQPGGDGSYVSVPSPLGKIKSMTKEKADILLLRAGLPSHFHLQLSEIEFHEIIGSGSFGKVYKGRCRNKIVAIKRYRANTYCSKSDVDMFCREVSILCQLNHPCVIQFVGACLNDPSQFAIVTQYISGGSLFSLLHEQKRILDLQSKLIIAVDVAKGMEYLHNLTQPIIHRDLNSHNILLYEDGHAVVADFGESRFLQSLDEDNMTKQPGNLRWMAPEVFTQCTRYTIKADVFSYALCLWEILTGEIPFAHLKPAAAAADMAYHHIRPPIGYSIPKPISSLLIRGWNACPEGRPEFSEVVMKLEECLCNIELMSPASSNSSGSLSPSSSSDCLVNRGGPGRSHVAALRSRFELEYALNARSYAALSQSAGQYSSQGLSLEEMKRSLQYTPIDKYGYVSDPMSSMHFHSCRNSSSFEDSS

The target in a further assay is T8, NEK9 (Homo sapiens, UniProt Q8TD19).
T8 construct: purchased Eurofins DiscoverX KINOMEscan
T8 sequence (Q8TD19 1-979): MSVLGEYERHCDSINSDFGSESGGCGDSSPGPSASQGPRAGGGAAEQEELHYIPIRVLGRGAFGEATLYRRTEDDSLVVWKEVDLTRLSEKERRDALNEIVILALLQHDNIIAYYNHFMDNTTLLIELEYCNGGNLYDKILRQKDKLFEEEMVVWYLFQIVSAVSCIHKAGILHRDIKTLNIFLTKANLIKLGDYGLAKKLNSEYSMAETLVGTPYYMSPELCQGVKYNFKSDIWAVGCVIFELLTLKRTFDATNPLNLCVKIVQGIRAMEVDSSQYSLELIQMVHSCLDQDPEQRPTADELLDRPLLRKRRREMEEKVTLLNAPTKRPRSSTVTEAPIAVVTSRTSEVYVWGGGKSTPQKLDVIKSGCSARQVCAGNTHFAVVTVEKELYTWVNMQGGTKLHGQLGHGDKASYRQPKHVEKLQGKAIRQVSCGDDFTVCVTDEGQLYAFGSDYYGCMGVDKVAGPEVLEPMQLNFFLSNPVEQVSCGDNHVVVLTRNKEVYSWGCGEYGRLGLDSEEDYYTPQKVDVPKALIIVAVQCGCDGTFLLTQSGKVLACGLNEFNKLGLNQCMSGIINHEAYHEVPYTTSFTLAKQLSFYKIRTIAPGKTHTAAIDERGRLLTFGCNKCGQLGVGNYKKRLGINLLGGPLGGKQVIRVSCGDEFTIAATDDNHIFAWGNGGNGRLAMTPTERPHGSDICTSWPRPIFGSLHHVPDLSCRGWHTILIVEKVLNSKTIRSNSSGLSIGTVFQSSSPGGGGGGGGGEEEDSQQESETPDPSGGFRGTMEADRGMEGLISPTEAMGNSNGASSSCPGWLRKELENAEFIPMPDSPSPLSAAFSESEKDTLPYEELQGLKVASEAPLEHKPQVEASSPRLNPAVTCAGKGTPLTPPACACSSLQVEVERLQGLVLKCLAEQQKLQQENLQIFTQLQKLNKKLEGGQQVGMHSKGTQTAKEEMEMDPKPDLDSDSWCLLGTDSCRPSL

A further assay concerns the target T9, CDC2L2 (Homo sapiens, UniProt Q9UQ88).
T9 construct: purchased Eurofins DiscoverX KINOMEscan
T9 sequence (Q9UQ88 1-783): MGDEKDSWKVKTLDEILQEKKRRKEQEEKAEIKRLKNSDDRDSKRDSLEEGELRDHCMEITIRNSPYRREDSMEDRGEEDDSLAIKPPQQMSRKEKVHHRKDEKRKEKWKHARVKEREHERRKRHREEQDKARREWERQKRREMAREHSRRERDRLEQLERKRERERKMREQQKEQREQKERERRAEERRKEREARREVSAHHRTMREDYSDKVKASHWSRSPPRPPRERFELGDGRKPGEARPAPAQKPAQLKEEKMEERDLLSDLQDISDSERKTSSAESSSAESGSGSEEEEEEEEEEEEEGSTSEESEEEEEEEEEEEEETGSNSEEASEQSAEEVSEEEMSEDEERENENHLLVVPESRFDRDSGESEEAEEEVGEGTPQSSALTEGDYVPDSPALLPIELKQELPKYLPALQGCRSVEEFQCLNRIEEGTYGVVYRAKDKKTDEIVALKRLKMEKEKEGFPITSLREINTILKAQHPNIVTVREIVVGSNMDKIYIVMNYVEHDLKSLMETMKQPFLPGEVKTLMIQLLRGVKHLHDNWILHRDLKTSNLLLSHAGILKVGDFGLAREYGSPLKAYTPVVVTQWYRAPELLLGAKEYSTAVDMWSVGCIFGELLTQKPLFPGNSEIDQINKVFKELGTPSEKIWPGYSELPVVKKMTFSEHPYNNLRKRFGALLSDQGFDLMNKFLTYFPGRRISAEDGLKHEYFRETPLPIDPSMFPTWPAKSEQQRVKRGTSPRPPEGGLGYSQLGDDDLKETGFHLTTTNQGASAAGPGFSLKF

The target in the next assay is T10, EPHA4 (Homo sapiens, UniProt P54764).
T10 construct: purchased Eurofins DiscoverX KINOMEscan

T1 sequence (Q96NX5 whole entry): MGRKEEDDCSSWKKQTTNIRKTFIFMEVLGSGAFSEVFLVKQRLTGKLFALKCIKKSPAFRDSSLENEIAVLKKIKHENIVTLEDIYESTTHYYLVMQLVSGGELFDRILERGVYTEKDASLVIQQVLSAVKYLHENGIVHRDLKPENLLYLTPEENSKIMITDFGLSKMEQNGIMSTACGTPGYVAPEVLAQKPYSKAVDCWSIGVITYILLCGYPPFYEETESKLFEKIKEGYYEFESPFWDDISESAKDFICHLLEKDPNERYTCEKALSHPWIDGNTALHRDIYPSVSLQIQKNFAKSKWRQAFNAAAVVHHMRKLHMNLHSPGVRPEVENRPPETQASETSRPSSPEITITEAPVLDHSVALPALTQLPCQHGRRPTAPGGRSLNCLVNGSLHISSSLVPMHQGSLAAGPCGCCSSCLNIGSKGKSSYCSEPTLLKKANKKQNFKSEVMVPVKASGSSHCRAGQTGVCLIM
T3 sequence (P27448 whole entry): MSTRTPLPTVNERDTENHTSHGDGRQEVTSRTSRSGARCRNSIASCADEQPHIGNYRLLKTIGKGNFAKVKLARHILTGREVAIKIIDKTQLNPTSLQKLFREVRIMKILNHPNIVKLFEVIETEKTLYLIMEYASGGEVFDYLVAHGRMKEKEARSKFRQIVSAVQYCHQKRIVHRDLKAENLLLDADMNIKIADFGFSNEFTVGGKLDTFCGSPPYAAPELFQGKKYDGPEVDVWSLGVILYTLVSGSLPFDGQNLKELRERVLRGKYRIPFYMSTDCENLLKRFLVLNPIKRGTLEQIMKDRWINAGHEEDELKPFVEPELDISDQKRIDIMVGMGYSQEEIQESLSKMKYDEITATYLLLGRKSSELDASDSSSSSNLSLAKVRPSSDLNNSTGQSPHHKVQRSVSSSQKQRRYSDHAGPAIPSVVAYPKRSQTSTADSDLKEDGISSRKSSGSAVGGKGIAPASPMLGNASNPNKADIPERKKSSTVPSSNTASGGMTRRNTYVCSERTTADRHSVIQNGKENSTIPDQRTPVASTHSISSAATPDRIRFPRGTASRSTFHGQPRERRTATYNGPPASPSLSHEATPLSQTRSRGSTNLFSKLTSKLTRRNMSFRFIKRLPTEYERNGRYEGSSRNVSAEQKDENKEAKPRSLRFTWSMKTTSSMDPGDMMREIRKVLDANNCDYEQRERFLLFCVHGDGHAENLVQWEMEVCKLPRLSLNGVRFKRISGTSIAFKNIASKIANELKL
T5 sequence (Q9H2X6 whole entry): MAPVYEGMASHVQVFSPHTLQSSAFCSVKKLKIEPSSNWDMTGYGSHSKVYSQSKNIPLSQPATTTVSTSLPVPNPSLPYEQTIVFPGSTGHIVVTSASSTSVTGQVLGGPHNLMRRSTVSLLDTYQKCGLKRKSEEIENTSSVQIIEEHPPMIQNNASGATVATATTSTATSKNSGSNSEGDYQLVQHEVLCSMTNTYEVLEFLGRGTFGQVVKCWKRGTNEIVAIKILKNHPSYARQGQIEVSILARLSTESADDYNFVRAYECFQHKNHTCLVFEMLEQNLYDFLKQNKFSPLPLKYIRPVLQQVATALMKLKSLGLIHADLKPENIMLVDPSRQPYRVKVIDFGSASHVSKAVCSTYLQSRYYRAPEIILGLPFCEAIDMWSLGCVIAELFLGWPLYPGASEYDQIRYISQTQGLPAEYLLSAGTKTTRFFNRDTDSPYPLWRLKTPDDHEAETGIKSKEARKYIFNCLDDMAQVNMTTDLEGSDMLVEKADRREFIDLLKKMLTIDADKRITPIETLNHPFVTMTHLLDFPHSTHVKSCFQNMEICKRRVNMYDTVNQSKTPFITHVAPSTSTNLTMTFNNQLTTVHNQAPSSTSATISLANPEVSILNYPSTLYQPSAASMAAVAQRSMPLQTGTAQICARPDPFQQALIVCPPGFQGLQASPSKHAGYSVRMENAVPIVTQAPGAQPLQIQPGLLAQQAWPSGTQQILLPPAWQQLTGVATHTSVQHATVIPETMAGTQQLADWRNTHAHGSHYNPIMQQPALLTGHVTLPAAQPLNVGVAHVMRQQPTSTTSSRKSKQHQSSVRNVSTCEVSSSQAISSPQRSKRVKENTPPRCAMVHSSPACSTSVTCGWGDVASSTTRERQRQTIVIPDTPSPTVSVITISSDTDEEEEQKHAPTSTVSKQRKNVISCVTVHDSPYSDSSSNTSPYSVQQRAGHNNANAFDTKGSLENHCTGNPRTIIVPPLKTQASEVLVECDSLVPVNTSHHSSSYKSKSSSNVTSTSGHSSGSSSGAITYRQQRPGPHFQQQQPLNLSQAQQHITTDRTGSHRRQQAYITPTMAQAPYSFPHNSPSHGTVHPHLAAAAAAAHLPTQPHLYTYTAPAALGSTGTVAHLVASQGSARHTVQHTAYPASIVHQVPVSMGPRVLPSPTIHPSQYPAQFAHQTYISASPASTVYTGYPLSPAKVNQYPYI
T2 sequence (P00519 whole entry F317I): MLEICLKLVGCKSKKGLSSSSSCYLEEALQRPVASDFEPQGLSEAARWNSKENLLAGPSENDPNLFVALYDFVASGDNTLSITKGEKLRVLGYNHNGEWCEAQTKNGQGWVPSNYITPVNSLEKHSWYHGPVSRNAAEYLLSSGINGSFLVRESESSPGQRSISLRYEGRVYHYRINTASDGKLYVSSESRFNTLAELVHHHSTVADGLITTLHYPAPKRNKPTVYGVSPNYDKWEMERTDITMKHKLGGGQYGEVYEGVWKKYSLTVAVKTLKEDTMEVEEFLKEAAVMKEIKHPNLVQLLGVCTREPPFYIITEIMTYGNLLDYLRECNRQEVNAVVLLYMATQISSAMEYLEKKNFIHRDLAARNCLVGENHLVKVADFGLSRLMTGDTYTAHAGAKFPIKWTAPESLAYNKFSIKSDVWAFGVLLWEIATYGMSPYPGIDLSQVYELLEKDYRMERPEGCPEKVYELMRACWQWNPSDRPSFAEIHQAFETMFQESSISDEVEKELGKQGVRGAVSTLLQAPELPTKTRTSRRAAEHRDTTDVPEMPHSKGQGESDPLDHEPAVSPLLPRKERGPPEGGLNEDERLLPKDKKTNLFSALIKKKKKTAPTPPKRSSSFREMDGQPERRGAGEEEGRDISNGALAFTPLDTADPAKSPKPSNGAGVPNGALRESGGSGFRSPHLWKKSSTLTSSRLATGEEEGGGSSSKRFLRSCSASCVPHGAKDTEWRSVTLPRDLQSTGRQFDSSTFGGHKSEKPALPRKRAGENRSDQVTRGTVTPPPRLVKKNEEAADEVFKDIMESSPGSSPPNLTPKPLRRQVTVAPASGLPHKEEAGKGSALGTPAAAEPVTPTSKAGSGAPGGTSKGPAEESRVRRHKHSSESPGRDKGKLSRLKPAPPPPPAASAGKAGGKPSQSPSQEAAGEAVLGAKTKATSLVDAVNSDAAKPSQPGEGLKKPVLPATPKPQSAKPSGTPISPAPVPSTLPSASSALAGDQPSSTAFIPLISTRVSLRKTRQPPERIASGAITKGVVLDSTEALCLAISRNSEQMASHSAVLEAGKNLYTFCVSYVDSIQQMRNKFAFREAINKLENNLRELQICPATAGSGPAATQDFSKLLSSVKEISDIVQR
T6 sequence (Q05397 whole entry): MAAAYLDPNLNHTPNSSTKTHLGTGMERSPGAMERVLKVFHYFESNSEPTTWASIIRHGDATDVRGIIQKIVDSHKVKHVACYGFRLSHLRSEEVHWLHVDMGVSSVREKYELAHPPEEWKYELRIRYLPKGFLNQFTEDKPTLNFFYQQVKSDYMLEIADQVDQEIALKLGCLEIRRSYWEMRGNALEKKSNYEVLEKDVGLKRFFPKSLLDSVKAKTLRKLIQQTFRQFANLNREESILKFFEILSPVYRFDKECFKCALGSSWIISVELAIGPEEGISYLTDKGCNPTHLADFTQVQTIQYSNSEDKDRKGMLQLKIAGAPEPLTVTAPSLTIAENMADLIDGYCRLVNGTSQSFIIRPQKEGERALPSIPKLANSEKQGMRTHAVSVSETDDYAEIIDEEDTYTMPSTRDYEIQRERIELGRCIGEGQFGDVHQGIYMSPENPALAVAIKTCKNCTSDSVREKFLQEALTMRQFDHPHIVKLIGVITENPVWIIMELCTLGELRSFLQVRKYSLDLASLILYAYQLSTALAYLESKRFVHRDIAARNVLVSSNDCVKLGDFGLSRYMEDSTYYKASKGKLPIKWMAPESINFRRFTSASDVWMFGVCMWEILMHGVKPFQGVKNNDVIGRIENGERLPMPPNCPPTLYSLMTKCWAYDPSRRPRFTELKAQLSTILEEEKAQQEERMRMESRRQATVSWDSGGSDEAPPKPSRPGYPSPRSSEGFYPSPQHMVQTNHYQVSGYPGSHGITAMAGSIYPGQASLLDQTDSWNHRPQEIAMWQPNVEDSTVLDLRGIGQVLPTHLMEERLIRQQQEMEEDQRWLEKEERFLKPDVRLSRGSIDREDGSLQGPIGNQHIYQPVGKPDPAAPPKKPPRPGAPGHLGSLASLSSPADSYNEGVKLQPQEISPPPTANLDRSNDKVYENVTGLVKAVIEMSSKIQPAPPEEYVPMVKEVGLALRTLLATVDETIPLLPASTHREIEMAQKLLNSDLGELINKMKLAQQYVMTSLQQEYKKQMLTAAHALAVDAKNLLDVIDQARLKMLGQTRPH

Regarding `Clc1cc(NCC2CC2)c2ncc(-c3ccc4[nH]ncc4c3)n2n1` [compound 2, 6-Chloro-N-(cyclopropylmethyl)-3-(1H-indazol-5-yl)imidazo[1,2-b]pyridazin-8-amine], the remaining binding at 1 µM on CAMK1G was determined as 76%; in [1], 71%; on MARK3, 100%; on STK39, 88%; at HIPK2, 62%; at FAK, 91%. Further, the remaining binding at 1 µM came to 97% on TNNI3K, 100% on NEK9, 100% at CDC2L2 and 84% on EPHA4.
Turning to `O=C(CN1CCOCC1)N[C@H]1CC[C@H](Nc2cc(Cl)nn3c(-c4ccc5[nH]ncc5c4)cnc23)CC1` [compound 26], the remaining binding at 1 µM was determined as 51% on CAMK1G; 28% in [1]; 99% at MARK3; 89% at STK39; 0.7% on HIPK2; 100% on FAK. The remaining binding at 1 µM at TNNI3K came out at 100%; at NEK9 it was 91%; at CDC2L2 it was 99%; at EPHA4, 99%.
Take `CN1CCC(CNc2cc(Cl)nn3c(-c4cc5nc(Nc6ccccc6)[nH]c5cc4F)cnc23)CC1` [compound 31, 6-Chloro-3-(6-fluoro-2-(phenylamino)-1H-benzo[d]imidazol-5-yl)-N-((1-methylpiperidin-4-yl)methyl)imidazo[1,2-b]pyridazin-8-amine]: the remaining binding at 1 µM on CAMK1G was determined as 100%; in assay [1], 63%; on MARK3, 60%; on STK39, 98%; at HIPK2, 85%; on FAK, 97%. Further, the remaining binding at 1 µM at TNNI3K turned out to be 100%; on NEK9, 100%; on CDC2L2, 90%; on EPHA4, 100%.
